From PubChem BioAssay AID248 (DTP/NCI, 2004)
Inconclusive results and toxic doses are left out. Square brackets hold non-standard residues; d marks the D form. Peptide text beside a SMILES is read from it. * marks the point of attachment. ξ: configuration not given here. Cbz = O=C(OCc1ccccc1)*; ξNva = CCCC(N)C(=O)O

Tested on: L1210 leukemia ip in BDF1 mice, survival T/C
Experiment: NCI In Vivo Anticancer Drug Screen. Data for tumor model L1210 Leukemia (intraperitoneal) in B6D2F1 (BDF1) mice
Settings: endpoint: mean survival time, higher = longer survival
Procedure, shortened: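 Value reflects the ratio of survival in compound-treated mice to survival in vehicle-treated controls, with both groups carrying the same transplanted tumor.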

[1] = dose: 100.0 mg/kg/injection, schedule: Q01DX001 (ip), vehicle: carboxymethylcellulose (CMC)
[2] = dose: 200.0 mg/kg/injection, schedule: Q01DX001 (ip), vehicle: carboxymethylcellulose (CMC)
[3] = dose: 400.0 mg/kg/injection, schedule: Q01DX001 (ip), vehicle: carboxymethylcellulose (CMC)
[4] = dose: 100.0 mg/kg/injection, schedule: Q04DX002 (ip), vehicle: gum acacia
[5] = dose: 100.0 mg/kg/injection, schedule: Q01DX001 (ip), vehicle: saline
[6] = dose: 400.0 mg/kg/injection, schedule: Q01DX001 (ip), vehicle: saline
[7] = dose: 200.0 mg/kg/injection, schedule: Q01DX001 (ip), vehicle: saline
[8] = dose: 100.0 mg/kg/injection, schedule: Q04DX003 (ip), vehicle: saline
[9] = dose: 200.0 mg/kg/injection, schedule: Q04DX003 (ip), vehicle: saline
[10] = dose: 400.0 mg/kg/injection, schedule: Q04DX003 (ip), vehicle: saline
[11] = dose: 100.0 mg/kg/injection, schedule: Q04DX003 (ip), vehicle: saline with Tween-80
[12] = dose: 200.0 mg/kg/injection, schedule: Q04DX003 (ip), vehicle: saline with Tween-80
[13] = dose: 400.0 mg/kg/injection, schedule: Q04DX003 (ip), vehicle: saline with Tween-80
[14] = dose: 100.0 mg/kg/injection, schedule: Q04DX003 (ip), vehicle: Klucel (hydroxypropylcellulose) (HPC)
[15] = dose: 200.0 mg/kg/injection, schedule: Q04DX003 (ip), vehicle: Klucel (hydroxypropylcellulose) (HPC)
[16] = dose: 100.0 mg/kg/injection, schedule: Q04DX002 (ip), vehicle: Klucel (hydroxypropylcellulose) (HPC)
[17] = dose: 200.0 mg/kg/injection, schedule: Q04DX002 (ip), vehicle: Klucel (hydroxypropylcellulose) (HPC)
[18] = dose: 400.0 mg/kg/injection, schedule: Q04DX002 (ip), vehicle: Klucel (hydroxypropylcellulose) (HPC)
[19] = dose: 400.0 mg/kg/injection, schedule: Q04DX003 (ip), vehicle: Klucel (hydroxypropylcellulose) (HPC)

CN(CCO)/N=N/c1nc[nH]c1C(N)=O
T/C [1]: 107 % of control
T/C [2]: 113 % of control
T/C [3]: 107 % of control
T/C (dose: 400.0 mg/kg/injection, schedule: Q01DX009 (ip), vehicle: carboxymethylcellulose (CMC)): 169 % of control
T/C (dose: 800.0 mg/kg/injection, schedule: Q01DX009 (ip), vehicle: carboxymethylcellulose (CMC)): 92 % of control

NC(=N\C1=NCCN1)/C(N)=N/C1=NCCN1
T/C [4]: 89 % of control
T/C (dose: 200.0 mg/kg/injection, schedule: Q04DX002 (ip), vehicle: gum acacia): 100 % of control
T/C (dose: 400.0 mg/kg/injection, schedule: Q04DX002 (ip), vehicle: gum acacia): 97 % of control

CC([NH-])CO.CC([NH-])CO.[Cu+2] (centres undefined)
T/C (dose: 12.5 mg/kg/injection, schedule: Q01DX001 (ip), vehicle: saline): 97 % of control
T/C (dose: 25.0 mg/kg/injection, schedule: Q01DX001 (ip), vehicle: saline): 108 % of control

NC1CC2(CCC1=O)c1ccccc1-c1ccccc12 (centres undefined)
T/C [5]: 101 % of control
T/C [6]: 104 % of control

COC(=O)C1=NNC(c2ccc(OC)cc2)C1 (centres undefined)
T/C (dose: 100.0 mg/kg/injection, schedule: Q01DX001 (ip), vehicle: steriod suspending solution): 115 % of control
T/C (dose: 200.0 mg/kg/injection, schedule: Q01DX001 (ip), vehicle: steriod suspending solution): 97 % of control
T/C (dose: 400.0 mg/kg/injection, schedule: Q01DX001 (ip), vehicle: steriod suspending solution): 103 % of control

Cc1cccc(Cl)c1N=C=O
T/C [5]: 102 % of control
T/C [7]: 102 % of control

O=C(O)C(=O)c1ccc(-c2ccccc2)cc1
T/C (dose: 5.0 mg/kg/injection, schedule: Q01DX Z (ip), vehicle: carboxymethylcellulose (CMC)): 102 % of control
T/C (dose: 10.0 mg/kg/injection, schedule: Q01DX Z (ip), vehicle: carboxymethylcellulose (CMC)): 100 % of control
T/C (dose: 20.0 mg/kg/injection, schedule: Q01DX Z (ip), vehicle: carboxymethylcellulose (CMC)): 94 % of control
T/C (dose: 40.0 mg/kg/injection, schedule: Q01DX Z (ip), vehicle: carboxymethylcellulose (CMC)): 100 % of control
T/C (dose: 75.0 mg/kg/injection, schedule: Q01DX001 (ip), vehicle: carboxymethylcellulose (CMC)): 101 % of control
T/C (dose: 150.0 mg/kg/injection, schedule: Q01DX001 (ip), vehicle: carboxymethylcellulose (CMC)): 101 % of control

CCOC(=O)c1c(C)[nH]oc1=O
T/C [8]: 111 % of control
T/C [9]: 102 % of control
T/C [10]: 96 % of control

Cc1cc(=O)oc2c1ccc1c(O)cccc12
T/C [1]: 103 % of control
T/C [2]: 97 % of control
T/C [3]: 94 % of control

CN(C)/C=N/N1CCN(C)CC1
T/C (dose: 100.0 mg/kg/injection, schedule: Q04DX002 (ip), vehicle: saline): 115 % of control
T/C (dose: 200.0 mg/kg/injection, schedule: Q04DX002 (ip), vehicle: saline): 101 % of control
T/C (dose: 400.0 mg/kg/injection, schedule: Q04DX002 (ip), vehicle: saline): 97 % of control

CNc1nc(Cl)cc2c1ncn2C1OC(CO)C(O)C1O (centres undefined)
T/C (dose: 100.0 mg/kg/injection, schedule: Q01DX005 (ip), vehicle: saline): 100 % of control
T/C (dose: 200.0 mg/kg/injection, schedule: Q01DX005 (ip), vehicle: saline): 100 % of control

O=c1nc(NO)c(Br)cn1C1CCCCO1 (centres undefined)
T/C [1]: 96 % of control
T/C [2]: 96 % of control
T/C [3]: 96 % of control

COc1cccc(N=CC(=O)c2ccc(C)cc2)c1
T/C (dose: 75.0 mg/kg/injection, schedule: Q04DX003 (ip), vehicle: Klucel (hydroxypropylcellulose) (HPC)): 95 % of control
T/C (dose: 150.0 mg/kg/injection, schedule: Q04DX003 (ip), vehicle: Klucel (hydroxypropylcellulose) (HPC)): 89 % of control

O=C(O)CCN1C/C(=C\c2ccc(Cl)cc2)C(=O)C1=O
T/C [8]: 101 % of control
T/C [9]: 101 % of control
T/C [10]: 101 % of control

C[C@H]1CCC/C=C/[C@@H]2C[C@H](O)C[C@H]2[C@H](O)/C=C/C(=O)O1
T/C [1]: 105 % of control
T/C (dose: 100.0 mg/kg/injection, schedule: Q01DX001 (ip), vehicle: other): 92 % of control
T/C (dose: 100.0 mg/kg/injection, schedule: Q01DX015 (ip), vehicle: water): 96 % of control
T/C [2]: 103 % of control
T/C (dose: 200.0 mg/kg/injection, schedule: Q01DX001 (ip), vehicle: other): 95 % of control
T/C (dose: 200.0 mg/kg/injection, schedule: Q01DX015 (ip), vehicle: water): 103 % of control
T/C (dose: 400.0 mg/kg/injection, schedule: Q01DX001 (ip), vehicle: other): 93 % of control

OCCOC1CCCCC=C1Br (centres undefined)
T/C [11]: 113 % of control
T/C [12]: 110 % of control
T/C [13]: 102 % of control

CCC(=O)Nc1ccccc1Cl
T/C (dose: 100.0 mg/kg/injection, schedule: Q01DX009 (ip), vehicle: saline with Tween-80): 97 % of control
T/C (dose: 200.0 mg/kg/injection, schedule: Q01DX009 (ip), vehicle: saline with Tween-80): 98 % of control
T/C (dose: 400.0 mg/kg/injection, schedule: Q01DX009 (ip), vehicle: saline with Tween-80): 101 % of control

CCCCCCCCCCCCOc1ccc(Br)cc1
T/C [11]: 98 % of control
T/C [12]: 92 % of control
T/C [13]: 96 % of control

Nc1nc(N)c2cc(N(CCO)CCO)ccc2n1
T/C (dose: 50.0 mg/kg/injection, schedule: Q01DX001 (ip), vehicle: saline): 101 % of control
T/C [5]: 95 % of control
T/C [7]: 95 % of control

O=Cc1cc(Br)c(O)c(Br)c1
T/C (dose: 50.0 mg/kg/injection, schedule: Q04DX003 (ip), vehicle: Klucel (hydroxypropylcellulose) (HPC)): 100 % of control
T/C [14]: 101 % of control
T/C [15]: 100 % of control

CN(C)C(=O)NNC(=O)c1ccc(Cl)cc1
T/C [11]: 100 % of control
T/C [12]: 95 % of control

NCCCC(N)C(=O)NCCCCCCCCCCNC(=O)C(N)CCCN (centres undefined)
T/C (dose: 10.0 mg/kg/injection, schedule: Q01DX Z (ip), vehicle: saline): 93 % of control
T/C (dose: 30.0 mg/kg/injection, schedule: Q01DX Z (ip), vehicle: saline): 101 % of control

CC(/C=N/NC(N)=S)Cc1ccc(C(C)C)cc1 (centres undefined)
T/C (dose: 12.5 mg/kg/injection, schedule: Q04DX003 (ip), vehicle: saline with Tween-80): 98 % of control
T/C (dose: 18.0 mg/kg/injection, schedule: Q01DX009 (ip), vehicle: alcohol): 95 % of control
T/C (dose: 28.0 mg/kg/injection, schedule: Q01DX009 (ip), vehicle: alcohol): 95 % of control

O=S1(=O)C(Cl)c2ccccc2-c2ccccc2C1Cl (centres undefined)
T/C (dose: 25.0 mg/kg/injection, schedule: Q04DX002 (ip), vehicle: gum acacia): 89 % of control
T/C (dose: 50.0 mg/kg/injection, schedule: Q04DX002 (ip), vehicle: gum acacia): 89 % of control
T/C [4]: 93 % of control

CC1(C)CCC2=C(C1)Nc1ccc(Cl)cc1NC2c1ccc([N+](=O)[O-])cc1 (centres undefined)
T/C [16]: 117 % of control
T/C [17]: 109 % of control
T/C [18]: 98 % of control

Cc1cc(OC(C)C(=O)O)c(Cl)cc1Cl (centres undefined)
T/C (dose: 50.0 mg/kg/injection, schedule: Q01DX001 (ip), vehicle: carboxymethylcellulose (CMC)): 103 % of control
T/C [1]: 103 % of control

CN(C)Cc1ccccc1COC(=O)c1ccccc1
T/C [16]: 119 % of control
T/C [17]: 105 % of control
T/C [18]: 97 % of control

Cc1cc(=O)[nH]c2ccc(Cc3ccc4[nH]c(=O)cc(C)c4c3)cc12
T/C [5]: 102 % of control
T/C [7]: 102 % of control
T/C [6]: 107 % of control

CCCC(NC(=O)CNC(=O)CNC(=O)OCc1ccccc1)C(=O)O (stereo not drawn) (Cbz-Gly-Gly-[ξNva]-OH)
T/C [14]: 101 % of control
T/C [15]: 106 % of control
T/C [19]: 106 % of control

COC(=O)CCCCCCCC(=O)OCC#CC#CCOC(=O)CCCCCCCC(=O)OC
T/C (dose: 100.0 mg/kg/injection, schedule: Q01DX009 (ip), vehicle: Klucel (hydroxypropylcellulose) (HPC)): 95 % of control
T/C [14]: 107 % of control
T/C (dose: 200.0 mg/kg/injection, schedule: Q01DX009 (ip), vehicle: Klucel (hydroxypropylcellulose) (HPC)): 90 % of control
T/C [15]: 94 % of control
T/C (dose: 400.0 mg/kg/injection, schedule: Q01DX009 (ip), vehicle: Klucel (hydroxypropylcellulose) (HPC)): 95 % of control
T/C [19]: 91 % of control
